Several values for one entry are separate records, joined by “and”; a condition that tells them apart may be missing. Equal entries are not always repeated.

For test [1], the target named is T1, Human KIF18A (amino acid sequence 1-417) (Homo sapiens, UniProt Q8NI77).
T1 construct: purchased Viva Biotech (Shanghai) Ltd
T1 sequence (Q8NI77 1-417): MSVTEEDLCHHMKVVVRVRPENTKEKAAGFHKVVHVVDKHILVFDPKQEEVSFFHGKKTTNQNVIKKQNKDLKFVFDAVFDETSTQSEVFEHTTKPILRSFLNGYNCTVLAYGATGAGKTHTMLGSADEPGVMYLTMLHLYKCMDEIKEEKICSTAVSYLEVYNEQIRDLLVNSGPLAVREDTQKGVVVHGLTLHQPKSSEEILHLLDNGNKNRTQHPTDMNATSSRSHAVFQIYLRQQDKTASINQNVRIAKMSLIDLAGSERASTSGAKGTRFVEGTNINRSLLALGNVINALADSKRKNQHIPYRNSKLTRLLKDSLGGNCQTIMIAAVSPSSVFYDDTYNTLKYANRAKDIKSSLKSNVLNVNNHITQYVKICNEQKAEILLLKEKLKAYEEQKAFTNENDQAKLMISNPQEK
Kind of test: Enzymatic activity test (ADP-Glo, microtubule-stimulated ATPase). The class given is biochemical. The note with it: 60 µg/mL microtubules, 25 µM ATP, 2.5 nM KIF18A protein, 120 min at ambient temperature, chemiluminescence; read-out: KIF18A IC50. The method, then: Materials: Human KIF18A (amino acid sequence 1-417) was purchased from Viva Biotech (Shanghai) Ltd.; the ADP-Glo™ protein kinase kit was acquired from Promega, USA; tubulin was sourced from Cytoskeleton, USA; and the 384-well assay plate and Envision multifunctional microplate reader were obtained from PerkinElmer, USA.
Enzymatic Activity Test: The compound powder was dissolved in DMSO to prepare a stock solution of 10 mM. Then gradient dilution was performed for the compounds in the microplate to achieve a final concentration of 0-10 µM. Then, 2.5 µL each of tubulin, compound, ATP, and KIF18A protein were added to the microplate in sequence for reaction at ambient temperature for 120 min. The final concentrations in the enzyme reaction were 60 µg/mL for microtubules, 25 µM for ATP, and 2.5 nM for KIF18A protein. After the enzyme reaction, 10 µL of ADP-GLO reaction reagent was added to each well and incubated at room temperature for 30 min. After that, 20 µL of detection reagent was added to each well and incubated at room temperature for 30 min in the dark. Finally, chemiluminescence detection was performed using the PerkinElmer Envision.

The test system of the next test is OVCAR3 cells. Kind of test: Cell proliferation activity test (CyQUANT Direct). It counts as cell-based. The following applies: 3 days, 0.2% DMSO, CyQUANT fluorescence. As for the experimental part: Materials and Cells: OVCAR3 cells were purchased from Nanjing Cobioer Biosciences Co., Ltd. RPMI-1640 medium, fetal bovine serum, and the CyQUANT Direct Cell Proliferation Assay kit were purchased from Thermo Fisher Scientific, USA; 96-well cell culture plates were sourced from Corning, USA.
Cell Culture: OVCAR3 cells were cultured with RPMI-1640 medium containing 10% fetal bovine serum and incubated in a 5% CO2 incubator at 37°C. Only cells in the logarithmic growth phase could be used for the test.
OVCAR3 cells were inoculated into a 96-well cell culture plate at 90 µL per well and incubated overnight in a 5% CO2 incubator at 37°C. The compound powder was dissolved in DMSO to prepare a stock solution of 10 mM. Then gradient dilution was performed for the compounds in the microplate to achieve a final concentration of 0-10 µM. 10 µL of cell culture medium containing compounds was added to each well to make the final DMSO content 0.2%. The cell plates were incubated in a 5% CO2 incubator at 37°C for 3 days. 100 µL of CyQUANT detection reagent was added to each well, reacted at 37°C for 60 min, and fluorescence detection was performed using the PerkinElmer Envision.

Usually IC50 stands for the concentration needed to halve the response being measured. With `COc1cc2nc(n1)N1CCC(F)(F)C(/C=C\CC3=CC=C(S3)c3cc(NS(=O)(=O)CCO)ccc3C(=O)N2)C1` (stereo not drawn) [Example 64, N-(1^4,1^4-difluoro-2^6-methoxy-4-oxo-3-aza-2(2,4)-pyrimidin-1(1,3)-piperidin-6(2,5)-thiophene-5(1,2)-benzoazacyclon-8-en-5^4-yl)-2-hydroxyethane-1-sulfonamide], in test [1], the IC50 was 0.097 µM. Turning to `Cc1cc2nc(n1)C1CN(/C=C/CC3CCN(CC3)c3cc(NS(=O)(=O)CCO)ccc3-c3cn-2nn3)CCC1(F)F` (single isomer, unassigned) [Example 84D, N-((3^4Z,7E)-1^4,1^4-difluoro-2^6-methyl-3^1H-2(2,4)-pyrimidin-1(1,3),5(1,4)-dipiperidin-3(1,4)-triazole-4(1,2)-benzocyclooct-7-en-4^4-yl)-2-hydroxyethane-1-sulfonamide], the IC50 in test [1] is 0.284 µM; in the test with OVCAR3 cells, more than 3 µM. Take `COc1cc2nc(n1)N1CCC(F)(F)C(CCCc3c(F)cc(cc3F)-c3cc(NS(=O)(=O)CCO)ccc3C(=O)N2)C1` (stereo not drawn) [Example 59, 2-hydroxy-N-(1^4,1^4,6^3,6^5-tetrafluoro-2^6-methoxy-4-oxo-3-aza-2(2,4)-pyrimidin-1(1,3)-piperidin-5(1,2),6(1,4)-diphenylheterocyclononane-54-yl)ethane-1-sulfonamide]: the IC50 in test [1] was 0.223 µM. For `COc1cc2nc(n1)N1CCC(F)(F)C(CCCC3=CC=C(S3)c3cc(NS(=O)(=O)CCO)ccc3C(=O)N2)C1` (stereo not drawn) [Example 65, N-(1^4,1^4-difluoro-2^6-methoxy-4-oxo-3-aza-2(2,4)-pyrimidin-1(1,3)-piperidin-6(2,5)-thiophene-5(1,2)-benzoazacyclononane-5^4-yl)-2-hydroxyethane-1-sulfonamide], the IC50 in test [1] turned out to be 0.135 µM. `Cc1cc2nc(n1)N1CCC(F)(F)C(C=CCc3csc(c3)-c3cc(NS(=O)(=O)CCO)ccc3C(=O)N2)C1` (stereo not drawn) [Example 66, N-(1^4,1^4-difluoro-2^6-methyl-4-oxo-3-aza-2(2,4)-pyrimidin-1(1,3)-piperidin-6(2,4)-thiophene-5(1,2)-benzoazacyclon-8-en-5^4-yl)-2-hydroxyethane-1-sulfonamide]: in test [1], the IC50 was determined as 0.043 µM. For the compound `COc1cc2nc(n1)N1CCC(F)(F)C(/C=C\C3=CC=C(S3)c3cc(NS(=O)(=O)CCO)ccc3C(=O)N2)C1` (stereo not drawn) [Example 60, N-(2^4,2^4-difluoro-1^1-methoxy-7-oxo-8-aza-1(2,4)-pyrimidin-2(1,3)-piperidin-5(2,5)-thiophene-6(1,2)-benzenecyclooctane-3-en-6^5-yl)-2-hydroxyethane-1-sulfonamide], the IC50 in test [1] stood at 0.04 µM. As for `Cc1cc2nc(n1)N1CCC(F)(F)C(CCc3csc(c3)-c3cc(NS(=O)(=O)CCO)ccc3C(=O)N2)C1` (stereo not drawn) [Example 69, N-(2^4,2^4-difluoro-1^6-methyl-7-oxo-8-aza-1(2,4)-pyrimidin-2(1,3)-piperidin-5(2,4)-thiophene-6(1,2)-benzeneheterocyclooctan-6^5-yl)-2-hydroxyethane-1-sulfonamide], in test [1], the IC50 was 0.045 µM.

In turn, `Cc1cc2nc(n1)N1CCC(F)(F)C(/C=C\c3ccc(cc3)-c3cc(NS(=O)(=O)CCO)ccc3C(=O)N2)C1` (stereo not drawn) [Example 43, N-(2^4,2^4-difluoro-1^6-methyl-7-oxo-8-aza-1(2,4)-pyrimidin-2(1,3)-piperidin-5(1,4),6(1,2)-diphenylcyclooct-3-en-6^5-yl)-2-hydroxyethane-1-sulfonamide] displayed an IC50 with OVCAR3 cells (Homo sapiens, OVCAR-3, 72 h) of 2.58 µM. For `Cc1cc2nc(n1)N1CCC(F)(F)C(CCCc3csc(c3)-c3cc(NS(=O)(=O)CCO)ccc3C(=O)N2)C1` (stereo not drawn) [Example 68, N-(1^4,1^4-difluoro-2^6-methyl-4-oxo-3-aza-2(2,4)-pyrimidin-1(1,3)-piperidin-6(2,4)-thiophene-5(1,2)-benzoazacyclononane-5^4-yl)-2-hydroxyethane-1-sulfonamide], in test [1], the IC50 came to 0.155 µM. For the compound `Cc1cc2nc(n1)NCC(C)C=CC1=CC=C(S1)c1cc(NS(=O)(=O)CCO)ccc1C(=O)N2` (stereo not drawn) [Example 70, N-(5^6,8-dimethyl-3-oxo-4,6-diaza-5(4,2)-pyrimidin-1(2,5)-thiophene-2(1,2)-benzenecyclodec-9-en-25-yl)-2-hydroxyeth ane-1-sulfonamide], the IC50 in test [1] worked out at 0.251 µM. Turning to “2-Hydroxy-N-(8-methyl-2^1,3-dione-2^2,2^3-dihydro-2^1H-4,6-diaza-5(2,6)-pyridin-1(1,4)-piperidin-2(5,4)-indenoundecan e-9-en-2^7-yl)ethane-1-sulfonamide [Example 38]”, the IC50 in test [1] is 0.113 µM. Consider `COc1cc2nc(n1)N1CCC(F)(F)C(CCC3=CC=C(S3)c3cc(NS(=O)(=O)CCO)ccc3C(=O)N2)C1` (stereo not drawn) [Example 61, N-(2^4,2^4-difluoro-1^6-methoxy-7-oxo-8-aza-1(2,4)-pyrimidin-2(1,3)-piperidin-5(2,5)-thiophene-6(1,2)-benzeneheterocyclooctan-6^3-yl)-2-hydroxyethane-1-sulfonamide], for which the IC50 in test [1] worked out at 0.06 µM.

Turning to `Cc1cc2nc(n1)N1CCC(F)(F)C(CCC3=CC=C(S3)c3cc(NS(=O)(=O)CCO)ccc3C(=O)N2)C1` (stereo not drawn) [Example 63, N-(2^4,2^4-difluoro-1^6-methyl-7-oxo-8-aza-1(2,4)-pyrimidin-2(1,3)-piperidin-5(2,5)-thiophene-6(1,2)-benzeneheterocyclooctan-6^5-yl)-2-hydroxyethane-1-sulfonamide], the IC50 in test [1] came to 0.126 µM. Regarding `Cc1cc2nc(n1)N1CCC(F)(F)C(/C=C/CC3CC4(C3)CN(C4)c3cc(NS(=O)(=O)CCO)ccc3C(=O)N2)C1` (stereo not drawn) [Example 47, N-(6^4,6^4-difluoro-5^1-methyl-3-oxo-4-aza-5(4,2)-pyrimidin-6(1,3)-piperidin-1(1,3)-azetidin-2(1,2)-benzene-10(1,3)-cyclobutyramide-7-en-2^5-yl)-2-hydroxyethane-1-sulfonamide], the IC50 in test [1] was 0.566 µM and 0.625 µM.

As for `Cc1cc2nc(n1)N1CCC(F)(F)C(/C=C\C3=CC=C(S3)c3cc(NS(=O)(=O)CCO)ccc3C(=O)N2)C1` (stereo not drawn) [Example 62, N-(2^4,2^4-difluoro-1^6-methyl-7-oxo-8-aza-1(2,4)-pyrimidin-2(1,3)-piperidin-5(2,5)-thiophene-6(1,2)-benzeneheterocyclooct-3-en-6^5-yl)-2-hydroxyethane-1-sulfonamide], in test [1], the IC50 is 0.035 µM. For the compound `Cc1cc2nc(n1)N1CCC(F)(F)C(C=CCC3CCN(CC3)c3cc(NS(=O)(=O)CCO)ccc3-n3cc-2nn3)C1` (stereo not drawn) [Example 81, N-((3^4,7)-1^4,1^4-difluoro-2^6-methyl-3^1H-2(2,4)-pyrimidin-1(1,3),5(1,4)-dipiperidin-3(4,1)-triazole-4(1,2)-benzocyclooct-7-en-44-yl)-2-hydroxyethane-1-sulfonamide], in the test with OVCAR3 cells (Homo sapiens, OVCAR-3, 72 h), the IC50 came out at 0.034 µM.

As for `Cc1cc2nc(n1)N1CCC(F)=C(/C=C/CC3CCN(CC3)c3cc(NS(=O)(=O)CCO)ccc3-n3cc-2nn3)C1` [Example 83, N-((3^4Z,7E)-1^4-fluoro-2^6-methyl-1^1,1^2,1^3,16-tetrahydro-3^1H-2(2,4)-pyrimidin-1(1,5)-pyridin-5(1,4)-piperidin-3(4,1)-triazole-4(1,2)-benzylcyclooct-7-en-4^4-yl)-2-hydroxyethane-1-sulfonamide], the IC50 with OVCAR3 cells (Homo sapiens, OVCAR-3, 72 h) worked out at 0.1 µM.

The values are drawn from patent EP4772509A1, “KINESIN KIF18A INHIBITOR, AND APPLICATION THEREOF” (Shanghai Apeiron Therapeutics Company Limited, priority 2023, dated 2025).
